Test results published in US9499464B2, “Opsin-binding ligands, compositions and methods of use” (priority 2011, dated 2016).

Columns and labels:
P23H opsin = experiment: Rhodopsin purification and regeneration (P23H cells treated with compound, regenerated with 9-cis-retinal, 480-500 nm absorbance); settings: for Fold Increase Over Control (480-500 nm absorbance as fold increase over the DMSO control): P23H cells, 48 hours, regeneration with 9-cis-retinal (20 μM)

SMILES	Fold Increase Over Control (480-500 nm absorbance as fold increase over the DMSO control) (P23H opsin; compound concentration 20 μM)	further results
CC1(C)CCC(C)(C)[C@H]2CC(=O)C=C21 [Compound 69a, (+)-4,4,7,7-tetramethyl-5,6,7,7a-tetrahydro-1H-inden-2(4H)-one]	2.0 fold	melting point: 35 to 38 °C
CC(C)[C@@H]1C[C@H](O)[C@H]2C(C)(C)CCC[C@@]12C (racemic) [Compound 58, (±)-(1S,3S,3aS,7aS)-3-isopropyl-3a,7,7-trimethyloctahydro-1H-inden-1-ol]	2.0 fold	–
CC(=O)/C=C/C1=C(C)CCCC1(C)C [β-ionone, reference compound]	2.4 fold	regeneration of 500 nm absorbing pigment upon treatment with retinal (P23H opsin; FIG. 1, P23H opsin treated with 20 µM during mutant protein production, relative to vehicle (DMSO) alone): increase
CC1(C)CCC(C)(C)C2CC(=O)C=C21 (single isomer, unassigned) [Compound 69b, (−)-4,4,7,7-tetramethyl-5,6,7,7a-tetrahydro-1H-inden-2(4H)-one]	1.8 fold	–
CC1(C)CCC(C)(C)[C@H]2CC(=O)C[C@H]21 [Compound 70, (3aR,7aS) and (3aS,7aR)-4,4,7,7-tetramethylhexahydro-1H-inden-2(3H)-one]	1.9 fold	–
CC(C)(C)C1=CC(=O)[C@H]2C(C)(C)CCC[C@@]12C (racemic) [Compound 43, (±)-(3aR,7aS)-3-tert-butyl-3a,7,7-trimethyl-3a,4,5,6,7,7a-hexahydro-1H-inden-1-one]	–	Fold Increase Over Control (480-500 nm absorbance as fold increase over the DMSO control) (P23H opsin; compound concentration 10 μM): 1.7 fold
